# Test results from US20060194268A1, “Method for measuring spinorphin” (priority 2005, published 2006).
# No end group written: not given here.
# How the values were obtained:
# [1] = system: spinorphin rabbit antibody; test: Competitive enzyme immunoassay, cross reactivity of spinorphin analogues; assay type: binding; conditions: for detection by the method of the present invention (reaction with spinorphin antibody): analogue as competitive compound for immobilized spinorphin; for IC50: competition with spinorphin immobilized on plate for spinorphin rabbit antibody; for Cross reactivity: ratio of spinorphin relative to IC50
# in vitro = conditions: bovine, cerebrospinal or other body fluid
# Method: A test was carried out to confirm whether the activity of spinorphin could be retained through the period from the step (B) to the step (E). Spinorphin (1 μg/mL) in TBS was dissolved in bovine cerebrospinal fluid. The cerebrospinal fluid was allowed to stand at room temperature for various time periods. The reaction was stopped, and the amount of spinorphin was measured according to the method mentioned in the above (2).
Substance,detection by the method of the present invention (reaction with spinorphin antibody) [1],further results
YPW,could not be detected,–
Pro-Trp-Thr [PWT],could not be detected,–
VYPWT,–,IC50 [1]: >10 µg/mL; Cross reactivity [1]: <6.4 × 10^−5
VYPW [spinorphin analogue],could not be detected,–
VVYPWT,–,IC50 [1]: 1.6 ± 5 µg/mL; Cross reactivity [1]: 0.0004
LVVYP [spinorphin analogue],could not be detected,–
VVYPW [tynorphin],could not be detected,–
YPWT [hemorphin-4],could not be detected,–
LVVYPW [spinorphin analogue],could not be detected,–
VVYP [spinorphin analogue],could not be detected,–
"LVVYPWT [Spinorphin, Leu-Val-Val-Tyr-Pro-Trp-Thr]",–,"remaining at 1 h, 1 μg/mL (in vitro): 98.8 ± 0.98%; IC50 [1]: 0.00064 ± 0.00061 µg/mL; Cross reactivity [1]: 1"
VYP,could not be detected,–
